Laboratory results taken from patent US12391679B2, “Benzamide-substituted bicyclic imidazo- and pyrazolo-fused -pyridine, -pyrimide, and -pyridazine compounds for treatment of inflammatory diseases” (ONCO3R Therapeutics BV, priority 2019, dated 2025).

Experiments:
[1] = biological target: T1, SIK2 (Homo sapiens, UniProt Q9H0K1); test: 33P radioactive kinase assay, SIK2; format: biochemical; also: AMARA 5 µM, 10 µM ATP
T1 construct: purchased ThermoFisher Scientific PV4792
Experimental: (§1) The principle of the ^33P radioactive kinase assay consists in measuring the incorporated ^33P into the substrate AMARA peptide when phosphorylated by SIK1, SIK2 or SIK3 using [^33P]-g-ATP, which correlates with kinase activity.
(§2) The test compounds are prepared as a serial dilution of 10 point dose responses with 1/5 dilution steps in 100% DMSO starting from 2 mM highest concentration, diluted 1/20 in water and 5 μL is transferred to the assay plates (Greiner, Cat #651201).
(§3) 1% DMSO and 10 μM staurosporine final concentrations are used as negative and positive controls.
(§4) 11 μL of enzyme-substrate mixture is added on the assay plates. The reactions are started by adding 9 μL ATP mixture, consisting of non-labeled and ^33P-labeled ATP, on the assay plates.
(§5) The reactions are stopped by adding 25 μL phosphoric acid (150 mM) to the reactions.
(§6) The completely terminated kinase reactions are transferred using a harvester on pre-wetted UniFilter-96 plates (UniFilter-96 GF/B, PerkinElmer Inc., Cat #6005177).
(§7) After harvesting the kinase reactions, the filter plates are washed 6 times with phosphoric acid (75 mM). The back of the UniFilter-96 plates are sealed and 40 μL MicroScint-20 (PerkinElmer Inc., Cat #6013621) is added to each well. The top of the plates are sealed with TopSeal-A. Read-out is performed with a TopCount instrument (PerkinElmer Inc.).
(§8) Raw data are generated following the read-out performed on the TopCount, plotted to generate dose response curves to calculate percentage inhibition (PIN) and average IC50 for each SIK homologue which are reported in the table below.

[2] = biological target: T2, SIK1 (Homo sapiens, UniProt P57059); test: 33P radioactive kinase assay, SIK1; format: biochemical
T2 construct: purchased Carna Biosciences 02-131
T2 sequence (P57059 whole entry): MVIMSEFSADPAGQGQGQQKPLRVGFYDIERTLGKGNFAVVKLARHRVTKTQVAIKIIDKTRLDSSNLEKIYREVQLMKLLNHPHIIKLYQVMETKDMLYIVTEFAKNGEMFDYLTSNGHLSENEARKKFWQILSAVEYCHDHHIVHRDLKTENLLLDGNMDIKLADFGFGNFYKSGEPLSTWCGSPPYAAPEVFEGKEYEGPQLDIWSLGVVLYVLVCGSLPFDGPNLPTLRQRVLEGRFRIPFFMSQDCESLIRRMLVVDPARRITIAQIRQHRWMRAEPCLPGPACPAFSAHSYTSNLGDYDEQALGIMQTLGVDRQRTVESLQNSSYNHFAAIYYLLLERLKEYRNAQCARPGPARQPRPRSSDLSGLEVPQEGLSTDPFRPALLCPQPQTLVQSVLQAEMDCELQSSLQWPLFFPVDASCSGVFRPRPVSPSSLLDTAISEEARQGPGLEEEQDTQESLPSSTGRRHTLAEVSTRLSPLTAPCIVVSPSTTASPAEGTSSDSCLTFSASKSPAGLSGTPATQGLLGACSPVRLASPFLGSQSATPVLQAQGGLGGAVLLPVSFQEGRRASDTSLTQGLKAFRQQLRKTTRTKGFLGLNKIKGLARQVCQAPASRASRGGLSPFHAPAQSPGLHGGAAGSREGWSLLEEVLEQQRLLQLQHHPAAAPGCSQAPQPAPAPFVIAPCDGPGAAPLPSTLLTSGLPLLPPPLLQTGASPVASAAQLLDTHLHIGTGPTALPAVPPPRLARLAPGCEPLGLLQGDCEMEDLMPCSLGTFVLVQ
Experimental: as §1, §2, §3, §4, §5, §6, §7, §8

[3] = biological target: T3, SIK3 (Homo sapiens, UniProt Q9Y2K2); test: 33P radioactive kinase assay, SIK3; format: biochemical; details: 33P radioactive assay; AMARA 7 μM; 15 μM ATP; 80 min; average IC50
T3 construct: purchased SignalChem S12-11G-100
T3 sequence (Q9Y2K2 59-365 limits assumed): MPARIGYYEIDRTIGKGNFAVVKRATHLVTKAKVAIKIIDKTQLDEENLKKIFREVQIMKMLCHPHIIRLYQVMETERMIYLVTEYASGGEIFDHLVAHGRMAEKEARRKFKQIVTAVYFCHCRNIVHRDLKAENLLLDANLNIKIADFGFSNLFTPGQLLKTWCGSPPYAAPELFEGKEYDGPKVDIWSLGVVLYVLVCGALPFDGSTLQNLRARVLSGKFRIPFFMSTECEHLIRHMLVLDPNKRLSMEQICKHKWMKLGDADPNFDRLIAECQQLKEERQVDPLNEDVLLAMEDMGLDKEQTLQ
Experimental: as §1, §2, §3, §4, §5, §6, §7, §8

[4] = tested on: LPS-induced TNFα in monocytes; test: Monocytes assay: LPS-triggered TNFα (ELISA); format: cell-based, human; details: Homo sapiens, Monocyte, LPS-triggered TNFα inhibition
Procedure, shortened: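 CD14+ monocytes were magnetically isolated from human buffy-coat PBMCs, preincubated with compound 1 h at 37 °C (0.2% DMSO), then stimulated with LPS at 200 ng/mL for 4 h. Supernatant TNFα was measured by luminescent sandwich ELISA; percentage inhibition was calculated against controls for each concentration.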

[5] = tested on: LPS triggered IL-10 secretion in monocytes; test: Monocytes assay: LPS-triggered IL-10 (ELISA); format: cell-based, human; details: Homo sapiens, Monocyte, LPS-triggered IL-10 induction, median maximal fold change vs LPS only, read-out: IL-10 FCmax median
Experimental: This assay evaluates illustrative compounds of the invention for their inhibition of LPS-induced TNFα and LPS triggered IL-10 secretion in monocytes.
PBMCs are isolated from human blood samples (buffycoats). The buffy coat is aseptically transferred into a 50 mL Falcon tube, and diluted 1/2 in PBS. Falcon tubes are filled with 20 mL Lymphoprep™, on top of which 25 mL of the buffy coat is carefully added, tubes are centrifuged for 35 min at 400 g in temperature controlled centrifuge, without brake, at 25° C. PBMCs are aspirated from the white interface layer between sample and Lymphoprep™. PBMCs are washed five times in PBS.
PBMCs are centrifuged at 300×g for 10 min and resuspended at a density of 1.0*10^7 cells/80 μL Miltenyi buffer (PBS, pH 7.4, 1% FBS, 2 mM EDTA).
Starting from this point of the protocol all steps are performed on ice. 20 μL of CD14+ micro-beads are added per 1.0*10^7 cells, the tube is mixed and incubated for 15 min in the fridge at 4° C. Cell suspension volume is adjusted to total volume of 100 mL using Miltenyi buffer, mixed gently and subsequently centrifuged for 10 min at 300×g. Supernatant is discarded and cell pellet is resuspended in 12 mL of Miltenyi buffer.
Four LS columns are placed in the MACS Separator (magnet) from Miltenyi Biotec, and are prewet by rinsing with 3 mL of MACS buffer per column. Three mL of cell suspension is added onto the column (max 1*10^8 of labelled cells/column), and columns are subsequently washed 3 times with 3 mL of Miltenyi buffer.
The columns are removed from the magnets, and 5 mL of Miltenyi buffer are added to the column to flush out the CD14+ fraction by pushing the plunger into the column. The flushed fractions are collected in a fresh 50 mL Falcon and volume is adjusted to 30 mL using Miltenyi buffer, cells are centrifuged for 10 min at 300×g. The obtained cell pellet is resuspended in 10 mL RPMI w/o FBS, and cell density is determined using a hematologic analyser (Sysmex XS-500i).
A compound dilution plate is made in 100% DMSO by 3-fold dilution of 10 mM stock solution. An intermediate dilution plate (10× final concentration) is made by diluting the compound dilution plate 50-fold in RPMI medium.
10 μL of the 10× final concentration compound is added to the cells and incubated for 1 h at 37° C. before addition of trigger. No trigger conditions/trigger conditions are spiked with equal final DMSO concentrations of 0.2% DMSO. 10 μL of 10×LPS (final conc. 200 ng/mL) solution are added to all wells except for the ‘no trigger wells’ where 10 μL medium is added. Supernatant is collected after 4 h of LPS triggering.
A Lumitrac 600 Greiner 384-well plate is coated with 40 μL of capture antibody (final concentration of 1 μg/mL in 1×PBS) and stored overnight at 4° C. The next day the plate is washed three times with PBST (PBS+0.05% Tween20) and once with PBS followed by the addition of 100 μL of blocking buffer (1% BSA-5% Sucrose) and plates are sealed and incubated for at least 4 h at RT. After washing the plate once with PBST and once with PBS, 40 μL of standard or sample are added (IL-10 standard curve is prepared using a 1/2 serial dilution starting from 2000 pg/mL; dilutions are made in dilution buffer (PBS+1% BSA)). […] Plates are washed twice with PBST, and once with PBS, whereafter 35 μL of Strep-HRP conjugate (0.5 μg/mL final concentration diluted in dilution buffer) is added. Plates are incubated in the dark, at RT for at least 45 min but no longer than 1 h. Plates are washed twice with PBST, and once with PBS. Thereafter, 50 μL of luminol substrate is added to each well (prepared according to manufacturer's instructions), and incubated for 5 min at RT protected from light.
To quantify these increases, fold changes (FC) compared to ‘LPS only’ are calculated for each concentration tested and the maximal FC is calculated (IL-10 FCmax): […]

[6] = biological target: T2, SIK1; test: ADP-Glo kinase assay, SIK1; format: biochemical
Procedure, shortened: (§9)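 Luminescent ADP-formation read-out: enzyme–substrate mix + ATP, 120 min RT; ATP depletion 40 min RT; ADP→ATP conversion with luciferase/luciferin 30 min RT. Controls: 1% DMSO (negative), 10 μM staurosporine final (positive).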

[7] = biological target: T1, SIK2; test: ADP-Glo kinase assay, SIK2; format: biochemical
Procedure, shortened: as §9

[8] = biological target: T3, SIK3; test: ADP-Glo kinase assay, SIK3; format: biochemical
Procedure, shortened: as §9

[9] = ADP-Glo, AMARA 45 μM, 5 μM ATP, 120 min, average IC50

T1 sequence (Q9H0K1 whole entry): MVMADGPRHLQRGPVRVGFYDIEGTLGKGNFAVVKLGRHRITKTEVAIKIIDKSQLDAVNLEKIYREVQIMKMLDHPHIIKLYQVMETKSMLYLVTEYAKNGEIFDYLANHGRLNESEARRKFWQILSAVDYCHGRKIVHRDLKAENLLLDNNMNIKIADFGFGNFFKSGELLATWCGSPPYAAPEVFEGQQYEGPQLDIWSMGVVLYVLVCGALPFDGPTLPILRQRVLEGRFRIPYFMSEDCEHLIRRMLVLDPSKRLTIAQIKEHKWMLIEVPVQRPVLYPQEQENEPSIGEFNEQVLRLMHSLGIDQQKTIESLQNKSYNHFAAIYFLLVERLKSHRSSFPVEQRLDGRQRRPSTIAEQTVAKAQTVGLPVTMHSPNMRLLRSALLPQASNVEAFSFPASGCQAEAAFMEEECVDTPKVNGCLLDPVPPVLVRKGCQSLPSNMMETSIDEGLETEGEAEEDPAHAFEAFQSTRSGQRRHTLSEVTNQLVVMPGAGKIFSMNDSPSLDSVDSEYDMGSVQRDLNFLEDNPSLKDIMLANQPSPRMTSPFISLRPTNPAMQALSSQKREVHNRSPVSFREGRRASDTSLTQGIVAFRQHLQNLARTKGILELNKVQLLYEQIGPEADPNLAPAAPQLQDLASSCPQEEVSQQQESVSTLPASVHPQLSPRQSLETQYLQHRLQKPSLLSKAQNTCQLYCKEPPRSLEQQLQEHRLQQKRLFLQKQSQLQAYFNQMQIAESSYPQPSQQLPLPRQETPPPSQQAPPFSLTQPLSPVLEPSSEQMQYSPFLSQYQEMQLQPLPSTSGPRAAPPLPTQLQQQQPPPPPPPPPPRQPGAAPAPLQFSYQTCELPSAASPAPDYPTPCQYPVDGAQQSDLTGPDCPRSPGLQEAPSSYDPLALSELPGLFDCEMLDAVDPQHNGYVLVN

IC50 [1] | IC50 [2] | IC50 [3] | EC50 [4] | IC50 [6] | IC50 [7] | IC50 [8] | IC50 [6, 9] | IC50 [7, 9] | IC50 [8, 9] | SMILES | maximal fold induction [5]
> 500 nM | > 500 nM | > 500 nM |  |  |  |  |  |  |  | COc1cc(-n2cnc3cc(C4CCN(C)CC4)ccc32)cc(OC)c1C(=O)NCC(F)(F)F [Cpd 1, 2,6-dimethoxy-4-[5-(1-methyl-4-piperidyl)benzimidazol-1-yl]-N-(2,2,2-trifluoroethyl)benzamide] | 
100 to 500 nM | > 500 nM | 100 to 500 nM |  |  |  |  |  |  |  | COc1cc(-n2cnc3cc(C4CCN(C(=O)OC(C)(C)C)CC4)ccc32)cc(OC)c1C(=O)NCC(F)(F)F [Cpd 2, tert-butyl 4-[1-[3,5-dimethoxy-4-(2,2,2-trifluoroethylcarbamoyl)phenyl]benzimidazol-5-yl]piperidine-1-carboxylate] | 
100 to 500 nM | > 500 nM | 100 to 500 nM |  |  |  |  |  |  |  | COc1cc(-n2cnc3cc(C4CCNCC4)ccc32)cc(OC)c1C(=O)NCC(F)(F)F [Cpd 3, 2,6-dimethoxy-4-[5-(4-piperidyl)benzimidazol-1-yl]-N-(2,2,2-trifluoroethyl)benzamide] | 
> 500 nM | > 500 nM | 100 to 500 nM |  |  |  |  |  |  |  | COc1cc(-n2cnc3cc(C4CCN(CC#N)CC4)ccc32)cc(OC)c1C(=O)NCC(F)(F)F [Cpd 4, 4-[5-[1-(cyanomethyl)-4-piperidyl]benzimidazol-1-yl]-2,6-dimethoxy-N-(2,2,2-trifluoroethyl)benzamide] | 
> 500 nM | > 500 nM | 100 to 500 nM |  |  |  |  |  |  |  | COc1cc(-n2cnc3cc(C4CCOCC4)ccc32)cc(OC)c1C(=O)NCC(F)(F)F [Cpd 5, 2,6-dimethoxy-4-(5-tetrahydropyran-4-ylbenzimidazol-1-yl)-N-(2,2,2-trifluoroethyl)benzamide] | 
> 500 nM | > 500 nM | 100 to 500 nM |  |  |  |  |  |  |  | COc1cc(-n2cnc3cc(C4CCCN(C)C4)ccc32)cc(OC)c1C(=O)NCC(F)(F)F (centres unmarked) [Cpd 6, 2,6-dimethoxy-4-[5-(1-methyl-3-piperidyl)benzimidazol-1-yl]-N-(2,2,2-trifluoroethyl)benzamide] | 
 |  |  | 100 to 1000 nM | > 500 nM | > 500 nM | 10 to 100 nM |  |  |  | COCC(C)(O)c1ccn2c(-c3cc(OC)c(C(=O)NC4CC4)c(OC(F)F)c3)cnc2c1 (centres unmarked) [Cpd 182, N-cyclopropyl-2-(difluoromethoxy)-4-[7-(1-hydroxy-2-methoxy-1-methyl-ethyl)imidazo[1,2-a]pyridin-3-yl]-6-methoxy-benzamide] | < 1.5
 |  |  | 1000 to 5000 nM | > 500 nM | 100 to 500 nM | 10 to 100 nM |  |  |  | COc1cc(-c2cnc3cc(C4CCOCC4)c(OCCO)cn23)cc(OC(F)F)c1C(=O)NC1CC1 [Cpd 183, N-cyclopropyl-2-(difluoromethoxy)-4-[6-(2-hydroxyethoxy)-7-tetrahydropyran-4-yl-imidazo[1,2-a]pyridin-3-yl]-6-methoxy-benzamide] | < 1.5
 |  |  | 1000 to 5000 nM | > 500 nM | > 500 nM | 10 to 100 nM |  |  |  | COc1cc(-c2cnc3cc(C(C)(O)CN4CC(F)(F)C4)ccn23)cc(OC(F)F)c1C(=O)NC1CC1 (centres unmarked) [Cpd 191, N-cyclopropyl-4-[7-[2-(3,3-difluoroazetidin-1-yl)-1-hydroxy-1-methyl-ethyl]imidazo[1,2-a]pyridin-3-yl]-2-(difluoromethoxy)-6-methoxy-benzamide] | < 1.5
 |  |  | 100 to 1000 nM | > 500 nM | 100 to 500 nM | 10 to 100 nM |  |  |  | COc1cn2c(-c3cc(OC)c(C(=O)NC4CC4)c(OC(F)F)c3)cnc2cc1C(C)(C)C#N [Cpd 200, 4-[7-(1-cyano-1-methyl-ethyl)-6-methoxy-imidazo[1,2-a]pyridin-3-yl]-N-cyclopropyl-2-(difluoromethoxy)-6-methoxy-benzamide] | < 1.5
 |  |  | 100 to 1000 nM | > 500 nM | 100 to 500 nM | 0.01 to 10 nM |  |  |  | [2H]C([2H])([2H])C(C#N)(c1ccn2c(-c3cc(OC)c(C(=O)NC4CC4)c(OC(F)F)c3)cnc2c1)C([2H])([2H])[2H] [Cpd 230, 4-[7-[1-cyano-2,2,2-trideuterio-1-(trideuteriomethyl)ethyl]imidazo[1,2-a]pyridin-3-yl]-N-cyclopropyl-2-(difluoromethoxy)-6-methoxy-benzamide] | < 1.5
 |  |  | 100 to 1000 nM | > 500 nM | > 500 nM | 10 to 100 nM |  |  |  | COCC(C)(C)c1ccc2c(-c3cc(OC)c(C(=O)NC4CC4)c(OC(F)F)c3)cnn2c1 [Cpd 238, N-cyclopropyl-2-(difluoromethoxy)-6-methoxy-4-[6-(2-methoxy-1,1-dimethyl-ethyl)pyrazolo[1,5-a]pyridin-3-yl]benzamide] | < 1.5
 |  |  | 100 to 1000 nM |  |  |  | 100 to 500 nM | 10 to 100 nM | 0.01 to 10 nM | COc1cc(-c2cnn3cc(C4COCCO4)ccc23)cc(OC(F)F)c1C(=O)N[C@@H]1C[C@@H]1F (stereo partly drawn) [Cpd 240, 2-(difluoromethoxy)-4-[6-(1,4-dioxan-2-yl)pyrazolo[1,5-a]pyridin-3-yl]-N-[(1R,2S)-2-fluorocyclopropyl]-6-methoxy-benzamide] | 1.5 to 4.5
